For one data set, the system named is HeLa. Description: Antiproliferative activity against human HeLa cells assessed as inhibition of cell growth incubated for 48 hrs by CCK-8 assay. The data set is classed as functional, cell-based. For orientation: Tetrazolium dyes change colour on reduction, which living cells bring about.
The subject of another data set is MDA-MB-231. Description: Antiproliferative activity against human MDA-MB-231 cells assessed as inhibition of cell growth incubated for 48 hrs by CCK-8 assay. The data set is classed as functional, cell-based. To be noted: MDA-MB-231, 48 h.
The target of data set [1] is Serine/threonine-protein kinase mTOR (Homo sapiens, UniProt P42345).
A further data set deals with MCF7. Description: Antiproliferative activity against human MCF7 cells assessed as inhibition of cell growth incubated for 48 hrs by CCK-8 assay. It counts as functional, cell-based. The conditions noted are these: MCF7, 48 h.
For a further data set, the system named is CNE-2. Description: Antiproliferative activity against human CNE-2 cells assessed as inhibition of cell growth incubated for 48 hrs by CCK-8 assay. To be noted: CNE-2, 48 h. The data set is classed as functional, cell-based.
The subject of a further data set is HCT-116. Description: Antiproliferative activity against human HCT-116 cells assessed as inhibition of cell growth incubated for 48 hrs by CCK-8 assay. The data set is classed as functional, cell-based. The conditions noted are these: HCT-116, 48 h.
The subject of the next data set is HepG2. Description: Antiproliferative activity against human HepG2 cells assessed as inhibition of cell growth incubated for 48 hrs by CCK-8 assay. It counts as functional, cell-based. The conditions noted are these: HepG2, 48 h.
Data set [2] addresses T1, Phosphatidylinositol 4,5-bisphosphate 3-kinase catalytic subunit delta isoform (Homo sapiens, UniProt O00329).
T1 sequence (O00329 whole entry): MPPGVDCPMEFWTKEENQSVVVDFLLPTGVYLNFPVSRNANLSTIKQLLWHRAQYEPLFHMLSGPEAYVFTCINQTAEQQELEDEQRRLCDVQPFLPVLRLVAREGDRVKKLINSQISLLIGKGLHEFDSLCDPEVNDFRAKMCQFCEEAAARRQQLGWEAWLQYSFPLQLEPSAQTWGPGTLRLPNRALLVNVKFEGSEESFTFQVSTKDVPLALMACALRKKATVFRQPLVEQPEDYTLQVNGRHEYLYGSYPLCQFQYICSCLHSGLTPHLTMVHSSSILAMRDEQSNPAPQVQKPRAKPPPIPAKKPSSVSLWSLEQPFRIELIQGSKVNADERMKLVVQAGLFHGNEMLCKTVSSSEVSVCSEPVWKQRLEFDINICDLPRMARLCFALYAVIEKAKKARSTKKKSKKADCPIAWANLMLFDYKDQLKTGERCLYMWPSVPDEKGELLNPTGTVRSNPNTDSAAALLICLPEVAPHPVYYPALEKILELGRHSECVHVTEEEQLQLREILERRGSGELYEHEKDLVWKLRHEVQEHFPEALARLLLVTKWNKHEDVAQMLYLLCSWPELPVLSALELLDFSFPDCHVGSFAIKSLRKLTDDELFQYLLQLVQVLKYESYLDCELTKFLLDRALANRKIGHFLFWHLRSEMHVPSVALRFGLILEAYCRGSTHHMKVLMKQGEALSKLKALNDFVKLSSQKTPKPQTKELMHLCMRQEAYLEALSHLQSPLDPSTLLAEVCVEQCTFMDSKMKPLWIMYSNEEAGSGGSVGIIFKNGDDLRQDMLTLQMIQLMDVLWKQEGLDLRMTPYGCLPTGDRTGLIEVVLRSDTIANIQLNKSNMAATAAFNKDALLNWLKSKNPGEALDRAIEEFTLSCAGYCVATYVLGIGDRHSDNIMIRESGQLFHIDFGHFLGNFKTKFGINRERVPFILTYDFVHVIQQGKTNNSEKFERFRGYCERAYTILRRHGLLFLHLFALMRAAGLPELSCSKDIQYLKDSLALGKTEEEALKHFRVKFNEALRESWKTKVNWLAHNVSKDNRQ

In data set [3] the target is Phosphatidylinositol 4,5-bisphosphate 3-kinase catalytic subunit beta isoform (Homo sapiens, UniProt P42338).
Data set [4] has as its target Phosphatidylinositol 4,5-bisphosphate 3-kinase catalytic subunit gamma isoform (Homo sapiens, UniProt P48736). Put plainly: Inhibition of PI3Kgamma (unknown origin) by ADP-glo plus luminescence assay. (In general: ADP-Glo first removes unused ATP, then detects ADP through luciferase.)
Data set [5] concerns the target Phosphatidylinositol 4,5-bisphosphate 3-kinase catalytic subunit alpha isoform (Homo sapiens, UniProt P42336). Put plainly: Inhibition of PI3Kalpha (unknown origin) by ADP-glo plus luminescence assay.
The target in the next data set is Cytochrome P450 2C19 (Homo sapiens, UniProt P33261). Description: Inhibition of CYP2C19 (unknown origin). It counts as ADME.
The target in data set [6] is Voltage-gated inwardly rectifying potassium channel KCNH2 (Homo sapiens, UniProt Q12809). Description: Inhibition of hERG. It counts as toxicity.
Another data set has as its target Cytochrome P450 3A4 (Homo sapiens, UniProt P08684). Put plainly: Inhibition of CYP3A4-M (unknown origin). The data set is classed as ADME.
The target in the next data set is Cytochrome P450 2C9 (Homo sapiens, UniProt P11712). Put plainly: Inhibition of CYP2C9 (unknown origin). It counts as ADME.
The target of another data set is T2, Cytochrome P450 1A2 (Homo sapiens, UniProt P05177).
T2 sequence (P05177 whole entry): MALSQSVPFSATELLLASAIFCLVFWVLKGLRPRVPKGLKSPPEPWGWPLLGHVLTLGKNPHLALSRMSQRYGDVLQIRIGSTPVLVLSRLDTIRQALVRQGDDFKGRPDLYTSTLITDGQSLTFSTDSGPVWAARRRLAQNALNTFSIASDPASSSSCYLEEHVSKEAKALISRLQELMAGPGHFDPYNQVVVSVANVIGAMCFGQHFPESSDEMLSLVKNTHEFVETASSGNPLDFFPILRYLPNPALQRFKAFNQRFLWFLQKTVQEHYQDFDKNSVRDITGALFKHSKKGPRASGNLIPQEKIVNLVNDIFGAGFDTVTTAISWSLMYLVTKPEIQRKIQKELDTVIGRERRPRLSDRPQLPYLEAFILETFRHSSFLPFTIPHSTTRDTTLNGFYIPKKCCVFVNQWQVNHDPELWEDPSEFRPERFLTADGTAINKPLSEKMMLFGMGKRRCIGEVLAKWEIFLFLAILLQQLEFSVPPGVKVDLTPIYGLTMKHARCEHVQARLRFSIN
Description: Inhibition of CYP1A2 (unknown origin). The data set is classed as ADME.

The target in the next data set is Cytochrome P450 2D6 (Homo sapiens, UniProt P10635). Description: Inhibition of CYP2D6 (unknown origin). It counts as ADME.
A short description of data set [7]: Antiproliferative activity against human L02 cells assessed as inhibition of cell growth incubated for 48 hrs by CCK-8 assay. The data set is classed as toxicity, cell-based.
Data set [8] in a line: Selectivity index, ratio of IC50 for antiproliferative activity against human L02 cells assessed as inhibition of cell growth to IC50 for antiproliferative activity against human HepG2 cells assessed as inhibition of cell growth. The data set is classed as toxicity, cell-based. The conditions noted are these: L02 cells versus HepG2 cells, read-out: Ratio IC50.

Where only a bound is given, the exact number is not on record here.

For orientation: IC50 means the concentration that gives 50% inhibition.

Phosphatidylinositol 4,5-bisphosphate 3-kinase catalytic subunit beta isoform, sequence (P42338 whole entry, canonical isoform): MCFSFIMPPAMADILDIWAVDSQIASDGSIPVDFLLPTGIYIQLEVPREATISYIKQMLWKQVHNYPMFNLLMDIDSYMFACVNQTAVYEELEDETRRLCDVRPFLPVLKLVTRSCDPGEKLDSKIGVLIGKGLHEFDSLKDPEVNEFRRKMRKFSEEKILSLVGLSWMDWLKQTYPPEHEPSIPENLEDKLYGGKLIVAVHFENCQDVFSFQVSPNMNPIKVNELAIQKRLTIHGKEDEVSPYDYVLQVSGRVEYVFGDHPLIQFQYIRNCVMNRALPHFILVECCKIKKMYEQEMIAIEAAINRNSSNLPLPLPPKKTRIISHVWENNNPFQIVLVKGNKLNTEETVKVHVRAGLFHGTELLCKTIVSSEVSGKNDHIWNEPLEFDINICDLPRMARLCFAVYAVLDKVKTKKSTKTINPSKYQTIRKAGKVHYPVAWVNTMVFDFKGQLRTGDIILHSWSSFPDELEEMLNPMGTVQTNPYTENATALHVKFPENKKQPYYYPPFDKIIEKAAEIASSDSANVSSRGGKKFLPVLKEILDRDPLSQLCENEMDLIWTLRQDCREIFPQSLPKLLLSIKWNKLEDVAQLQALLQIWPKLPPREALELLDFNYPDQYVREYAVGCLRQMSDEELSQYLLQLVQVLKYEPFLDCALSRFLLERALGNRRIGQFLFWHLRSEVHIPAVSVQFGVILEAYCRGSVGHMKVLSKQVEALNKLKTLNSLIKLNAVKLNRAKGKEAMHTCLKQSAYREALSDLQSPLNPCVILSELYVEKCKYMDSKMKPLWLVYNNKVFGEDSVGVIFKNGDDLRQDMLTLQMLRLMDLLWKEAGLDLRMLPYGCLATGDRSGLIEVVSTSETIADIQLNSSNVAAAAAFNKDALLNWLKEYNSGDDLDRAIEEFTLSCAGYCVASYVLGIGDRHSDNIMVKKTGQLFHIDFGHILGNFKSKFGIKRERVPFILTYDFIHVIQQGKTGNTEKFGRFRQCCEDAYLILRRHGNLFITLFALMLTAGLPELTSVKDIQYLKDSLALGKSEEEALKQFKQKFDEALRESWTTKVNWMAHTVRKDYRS
Phosphatidylinositol 4,5-bisphosphate 3-kinase catalytic subunit gamma isoform, sequence (P48736 whole entry, canonical isoform): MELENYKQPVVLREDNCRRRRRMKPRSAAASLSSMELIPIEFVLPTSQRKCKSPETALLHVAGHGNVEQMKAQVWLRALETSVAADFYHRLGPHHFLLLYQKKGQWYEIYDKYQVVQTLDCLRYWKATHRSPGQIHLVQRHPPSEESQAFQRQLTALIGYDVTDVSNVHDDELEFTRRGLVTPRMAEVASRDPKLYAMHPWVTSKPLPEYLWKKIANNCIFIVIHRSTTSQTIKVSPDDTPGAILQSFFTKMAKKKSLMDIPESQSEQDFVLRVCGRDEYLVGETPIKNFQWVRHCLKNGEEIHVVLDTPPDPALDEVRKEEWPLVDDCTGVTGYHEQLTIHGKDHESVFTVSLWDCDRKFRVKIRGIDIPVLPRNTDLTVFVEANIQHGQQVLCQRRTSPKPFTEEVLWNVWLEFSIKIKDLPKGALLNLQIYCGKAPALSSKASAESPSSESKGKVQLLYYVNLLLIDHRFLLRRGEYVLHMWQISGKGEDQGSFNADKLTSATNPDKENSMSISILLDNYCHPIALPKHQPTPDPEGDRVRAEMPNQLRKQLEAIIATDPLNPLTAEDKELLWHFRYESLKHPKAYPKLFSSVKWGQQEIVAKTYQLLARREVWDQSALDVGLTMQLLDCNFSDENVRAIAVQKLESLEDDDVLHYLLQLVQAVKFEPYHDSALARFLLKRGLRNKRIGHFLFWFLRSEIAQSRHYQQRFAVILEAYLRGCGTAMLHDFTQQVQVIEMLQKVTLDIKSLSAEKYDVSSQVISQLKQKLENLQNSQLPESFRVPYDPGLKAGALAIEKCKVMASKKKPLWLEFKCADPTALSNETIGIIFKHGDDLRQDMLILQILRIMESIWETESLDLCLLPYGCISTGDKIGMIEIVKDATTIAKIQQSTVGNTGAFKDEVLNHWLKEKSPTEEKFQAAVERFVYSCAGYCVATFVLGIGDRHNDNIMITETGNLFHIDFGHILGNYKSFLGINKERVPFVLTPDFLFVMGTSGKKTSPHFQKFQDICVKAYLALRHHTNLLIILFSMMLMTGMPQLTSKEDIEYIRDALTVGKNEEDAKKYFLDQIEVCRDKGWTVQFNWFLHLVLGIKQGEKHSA
Phosphatidylinositol 4,5-bisphosphate 3-kinase catalytic subunit alpha isoform, sequence (P42336 whole entry, canonical isoform): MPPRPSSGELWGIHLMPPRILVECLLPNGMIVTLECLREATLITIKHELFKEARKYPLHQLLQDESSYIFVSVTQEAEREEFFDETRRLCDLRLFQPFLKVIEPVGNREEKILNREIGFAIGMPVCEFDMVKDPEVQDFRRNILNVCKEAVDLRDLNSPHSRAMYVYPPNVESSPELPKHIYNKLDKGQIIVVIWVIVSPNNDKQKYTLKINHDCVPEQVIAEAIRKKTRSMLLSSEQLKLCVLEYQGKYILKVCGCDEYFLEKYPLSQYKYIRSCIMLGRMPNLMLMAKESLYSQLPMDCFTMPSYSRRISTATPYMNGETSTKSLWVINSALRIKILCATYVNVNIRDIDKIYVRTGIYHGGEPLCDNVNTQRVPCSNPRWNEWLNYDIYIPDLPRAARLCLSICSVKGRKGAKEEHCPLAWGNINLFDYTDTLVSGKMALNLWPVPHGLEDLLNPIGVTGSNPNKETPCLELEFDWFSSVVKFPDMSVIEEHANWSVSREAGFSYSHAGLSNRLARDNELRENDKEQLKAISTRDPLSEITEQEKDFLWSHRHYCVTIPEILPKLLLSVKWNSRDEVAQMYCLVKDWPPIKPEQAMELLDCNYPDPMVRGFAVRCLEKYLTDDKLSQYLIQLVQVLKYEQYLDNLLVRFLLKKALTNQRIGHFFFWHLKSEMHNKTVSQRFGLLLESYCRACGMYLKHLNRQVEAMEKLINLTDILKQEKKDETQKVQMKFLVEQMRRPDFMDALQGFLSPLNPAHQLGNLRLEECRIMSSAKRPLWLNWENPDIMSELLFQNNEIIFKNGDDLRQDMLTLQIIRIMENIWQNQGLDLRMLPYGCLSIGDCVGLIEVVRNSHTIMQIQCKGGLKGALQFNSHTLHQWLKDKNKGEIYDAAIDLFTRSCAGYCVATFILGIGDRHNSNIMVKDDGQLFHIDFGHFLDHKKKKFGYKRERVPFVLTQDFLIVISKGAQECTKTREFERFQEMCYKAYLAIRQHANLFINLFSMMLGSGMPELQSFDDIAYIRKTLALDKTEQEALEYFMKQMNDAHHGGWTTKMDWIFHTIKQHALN
Voltage-gated inwardly rectifying potassium channel KCNH2, sequence (Q12809 whole entry): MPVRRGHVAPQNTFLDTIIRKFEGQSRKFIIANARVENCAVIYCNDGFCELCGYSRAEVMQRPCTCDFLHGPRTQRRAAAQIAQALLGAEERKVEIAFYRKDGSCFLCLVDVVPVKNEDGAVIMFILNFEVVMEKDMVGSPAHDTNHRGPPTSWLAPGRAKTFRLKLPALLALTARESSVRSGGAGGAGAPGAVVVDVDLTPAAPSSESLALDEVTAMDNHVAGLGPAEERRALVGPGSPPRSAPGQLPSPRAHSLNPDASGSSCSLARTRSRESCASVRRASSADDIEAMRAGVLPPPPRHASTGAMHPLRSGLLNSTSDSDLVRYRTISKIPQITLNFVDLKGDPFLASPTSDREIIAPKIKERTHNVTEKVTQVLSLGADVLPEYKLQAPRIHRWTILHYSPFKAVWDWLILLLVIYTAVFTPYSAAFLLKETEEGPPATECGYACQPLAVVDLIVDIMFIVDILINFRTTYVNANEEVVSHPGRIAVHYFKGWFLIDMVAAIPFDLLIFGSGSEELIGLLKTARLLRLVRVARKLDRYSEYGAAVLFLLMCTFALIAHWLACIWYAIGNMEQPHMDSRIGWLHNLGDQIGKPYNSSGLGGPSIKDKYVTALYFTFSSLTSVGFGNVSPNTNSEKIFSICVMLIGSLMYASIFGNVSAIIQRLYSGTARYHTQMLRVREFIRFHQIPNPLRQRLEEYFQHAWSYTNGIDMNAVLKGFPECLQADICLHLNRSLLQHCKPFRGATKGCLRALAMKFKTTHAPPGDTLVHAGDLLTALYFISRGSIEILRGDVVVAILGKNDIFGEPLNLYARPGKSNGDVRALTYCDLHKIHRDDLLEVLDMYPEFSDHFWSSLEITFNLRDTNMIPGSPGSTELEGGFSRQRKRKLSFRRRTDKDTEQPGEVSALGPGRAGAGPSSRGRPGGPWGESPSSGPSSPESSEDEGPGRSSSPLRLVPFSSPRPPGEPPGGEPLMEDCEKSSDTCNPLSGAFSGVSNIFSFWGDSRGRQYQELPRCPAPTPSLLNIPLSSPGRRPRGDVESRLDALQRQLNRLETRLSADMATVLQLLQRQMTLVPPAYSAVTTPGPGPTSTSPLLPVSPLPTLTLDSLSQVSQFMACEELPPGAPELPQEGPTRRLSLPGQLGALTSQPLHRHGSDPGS
Cytochrome P450 2C9, sequence (P11712 whole entry): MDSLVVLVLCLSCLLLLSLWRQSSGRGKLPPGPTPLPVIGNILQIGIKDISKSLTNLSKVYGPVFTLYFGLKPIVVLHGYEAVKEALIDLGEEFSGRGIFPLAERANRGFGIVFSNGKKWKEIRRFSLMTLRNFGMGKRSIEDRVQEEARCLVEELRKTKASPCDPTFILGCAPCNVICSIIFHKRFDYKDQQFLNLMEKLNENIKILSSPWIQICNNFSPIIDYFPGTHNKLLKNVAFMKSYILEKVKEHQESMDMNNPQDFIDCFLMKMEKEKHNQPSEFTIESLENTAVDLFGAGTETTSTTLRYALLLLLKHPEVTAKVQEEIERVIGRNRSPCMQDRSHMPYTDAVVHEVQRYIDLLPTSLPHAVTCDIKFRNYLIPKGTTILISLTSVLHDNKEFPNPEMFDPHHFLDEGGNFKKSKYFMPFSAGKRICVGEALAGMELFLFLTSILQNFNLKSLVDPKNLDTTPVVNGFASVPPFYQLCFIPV

Consider `C[C@H]1COCCN1c1nc(-c2ccc(NC(=O)Nc3ccc4c(c3)COC4=O)cc2)nc(N2C3CCC2COC3)n1`, for which the half-inhibitory concentration (IC50) in the data set on HeLa worked out at 6030 nM; in the data set with MDA-MB-231, 3440 nM; in [1], 4 nM; with MCF7, 1740 nM; in the data set with CNE-2, 1080 nM; in the data set with HCT-116, 5050 nM. In addition, in the data set on HepG2, the IC50 came out at 5670 nM.

`O=C(Nc1ccc(-c2nc(N3CCOCC3)nc(N3CCO[C@@H](CO)C3)n2)cc1)Nc1ccc2c(c1)COC2=O`: the results for the IC50 in data set [2], in data set [3] and in data set [4] were 234 nM, 157 nM and 228 nM, respectively.

Take `CC(C)(C)OC(=O)N1C(=O)c2ccc(NC(=O)Nc3ccc(-c4nc(N5CCOCC5)nc(N5CCOCC5)n4)cc3)cc2C1=O`: the IC50 in [5] stood at 379 nM.

Regarding `O=C(Nc1ccc(-c2nc(N3CCOCC3)nc(N3CCOCC3)n2)cc1)Nc1ccc2c(c1)COC2=O`, the IC50 in data set [2] is 248 nM; in data set [3] it was 129 nM; in data set [4], 162 nM.

Turning to `O=C(Nc1ccc(-c2nc(N3C4CCC3COC4)nc(N3C4CCC3COC4)n2)cc1)Nc1ccc2c(c1)COC2=O`, the IC50 is greater than 10000 nM in [2]; greater than 10000 nM against Cytochrome P450 2C19; greater than 30000 nM in [6]; 1.2 nM in [1]; greater than 10000 nM in data set [3]; greater than 10000 nM against Cytochrome P450 3A4. For the same compound, the IC50 (against Cytochrome P450 2C9; in data set [4]; on Cytochrome P450 1A2; against Cytochrome P450 2D6) was greater than 10000 nM in each case.

With `O=C(Nc1ccc(-c2nc(N3CCOCC3)nc(N3C4CCC3COC4)n2)cc1)Nc1ccc2c(c1)COC2=O`, the IC50 at 48 h in data set [7] came out at 4590 nM. The IC50 is 1830 nM in data set [2]; 2150 nM in the data set on HeLa; 4430 nM with MDA-MB-231; 1.7 nM in [1]; 890 nM in the data set with MCF7; 230 nM in the data set with CNE-2. For the same compound, the IC50 amounted to 782 nM in data set [3]; 1940 nM in data set [4]; 354 nM in data set [5]; 732 nM in the data set with HCT-116; 130 nM in the data set with HepG2. For the same compound, the selectivity ratio in [8] amounted to 35.3.

Take `CC(C)(C)OC(=O)N1CC2CCC(C1)N2c1nc(-c2ccc(NC(=O)Nc3ccc4c(c3)COC4=O)cc2)nc(N2CCOCC2)n1`: the IC50 in [1] was determined as 147 nM.

As to `O=C(Nc1ccc(-c2nc(N3CCOCC3)nc(N3CCO[C@H](CO)C3)n2)cc1)Nc1ccc2c(c1)COC2=O`, the IC50 in data set [2] is 161 nM; in data set [3], 93 nM; in [4], 228 nM.

Take `O=C(Nc1ccc(-c2nc(N3CCOCC3)nc(N3CCOCC3)n2)cc1)Nc1ccc2c(c1)CNC2=O`: the IC50 in data set [2] came out at 98.3 nM; in [3], 162 nM; in data set [4], 25.5 nM.

`O=C(Nc1ccc(-c2nc(N3CCOCC3)nc(N3C4CCC3CNC4)n2)cc1)Nc1ccc2c(c1)COC2=O`: the IC50 stood at 12600 nM in the data set with HeLa; 11900 nM in the data set with MDA-MB-231; 20 nM in [1]; 1130 nM with MCF7; 2270 nM with CNE-2; 770 nM in the data set on HCT-116. For the same compound, the IC50 with HepG2 was greater than 100000 nM.

As for `CC1OC(=O)c2cc(NC(=O)Nc3ccc(-c4nc(N5CCOCC5)nc(N5CCOCC5)n4)cc3)ccc21` (configuration not stated), the IC50 in data set [1] is 7.2 nM; in data set [5], 45.4 nM.

`C[C@H]1COCCN1c1nc(-c2ccc(NC(=O)Nc3ccc4c(c3)COC4=O)cc2)nc(N2CCOCC2)n1`: the results for the IC50 in data set [2], in data set [3] and in data set [4] were 1320 nM, 754 nM and 725 nM, respectively.

The compound `O=C(Nc1ccc(-c2nc(N3CCOCC3)nc(N3CC4CCC(C3)O4)n2)cc1)Nc1ccc2c(c1)COC2=O` returned an IC50 in data set [1] of 4.6 nM.

Values taken from ChEMBL document CHEMBL5543164 (J Med Chem, 2024).
